Values quoted from earlier work, collected in patent US9873661B2, “Small molecule malarial Aldolase-TRAP enhancers and glideosome inhibitors” (NEW YORK UNIVERSITY, priority 2011, dated 2018).

Molecular target: T1, plant plasma membrane H+-ATPase (PMA) and 14-3-3 (Nicotiana tabacum, UniProt P93343)
T1 sequence (P93343 1-260): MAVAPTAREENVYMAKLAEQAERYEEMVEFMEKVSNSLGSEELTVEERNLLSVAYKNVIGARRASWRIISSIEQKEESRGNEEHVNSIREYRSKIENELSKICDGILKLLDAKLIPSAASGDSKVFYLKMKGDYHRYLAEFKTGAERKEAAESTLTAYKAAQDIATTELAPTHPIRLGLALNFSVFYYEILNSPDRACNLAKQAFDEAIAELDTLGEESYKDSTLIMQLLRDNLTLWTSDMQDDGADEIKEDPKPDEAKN

fusioccin
increase of binding affinity between PMA and 14-3-3: approximately 90 fold
